Test results from patent publication US12391686B2, “Compounds and uses thereof” (Foghorn Therapeutics Inc., priority 2019, dated 2025).
pIC50: −log10 of the molar value.

The compounds below were run against T1, BRD9 bromodomain (Flag-BRD9 P133-K239; Swiss Prot Q9H8M2) (Homo sapiens, UniProt Q9H8M2) (assay: BRD9 Bromodomain TR-FRET Competition Binding Assay). Conditions: competition with biotinylated BRD9 ligand; 90 minutes at room temperature.
T1 construct: His-Flag-BRD9 (P133-K239); Swiss Prot Q9H8M2; His6 with TEV site (mgsshhhhhhenlyfq/) (N, cleaved yes); made in house
T1 sequence (Q9H8M2 133-239): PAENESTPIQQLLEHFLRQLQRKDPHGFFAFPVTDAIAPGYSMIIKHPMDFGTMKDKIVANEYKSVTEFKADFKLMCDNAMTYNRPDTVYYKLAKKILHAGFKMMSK
Description: Procedure: His-Flag-BRD9 (P133-K239; Swiss Prot Q9H8M2; SEQ ID NO:1 mgsshhhhhhenlyfq/gdykddddkgslevlfqg/[…] […]) was cloned, expressed, purified, and then treated with TEV protease. Cleaved His tag was removed by purification. The binding of a biotinylated small molecule ligand of BRD9 was assessed via the LANCE® TR-FRET platform (PerkinElmer), and the compounds were assayed for inhibitory activity against this interaction.
Results: A mixture of biotinylated-ligand and SureLight™ Allophycocyanin-Streptavidin (APC-SA, PerkinElmer AD0201) in 50 mM HEPES (pH 7.4), 50 mM NaCl, 1 mM TCEP (pH 7), 0.01% (v/v) Tween-20, 0.01% (w/v) bovine serum albumin was added to a white 384-well PerkinElmer Proxiplate Plus plate. DMSO or 3-fold serially diluted compounds were then added to the Proxiplate followed by addition of Flag-BRD9. After a 10-minute incubation at room temperature, Eu-W1024 anti-FLAG (PerkinElmer, AD0273) was added. The final reaction mixture that contained 3.75 nM biotinylated ligand, 3 nM Flag-BRD9, 7.5 nM SureLight™ Allophycocyanin-Streptavidin, and 0.2 nM Eu-W1024 anti-FLAG was incubated at room temperature for 90 minutes.
The plates were then read on a PerkinElmer Envision plate reader to determine the ratio of emission at 665 nm over 615 nm. […]

SMILES | pIC50
CNc1cc2c(-c3cc(OC)c(CN(C)C)c(OC)c3)cn(C)c(=O)c2cn1 [Compound B1, 4-[4-[(dimethylamino)methyl]-3,5-dimethoxyphenyl]-2-methyl-6-(methylamino)-1,2-dihydro-2,7-naphthyridin-1-one] | > 8.00
COc1cc(-c2cn(C)c(=O)c3cnc(N(C)C)cc23)cc(OC)c1CN(C)C [Compound B2, 6-(dimethylamino)-4-[4-[(dimethylamino)methyl]-3,5-dimethoxyphenyl]-2-methyl-1,2-dihydro-2,7-naphthyridin-1-one] | > 8.00
CNc1cc2c(=O)n(C)cc(-c3cc(OC)c(CN(C)C)c(OC)c3)c2cn1 [Compound B3, 4-[4-[(Dimethylamino)methyl]-3,5-dimethoxyphenyl]-2-methyl-7-(methylamino)-1,2-dihydro-2,6-naphthyridin-1-one] | ≤ 8.00
COc1cc(-c2cn(C)c(=O)c3cnc(N)cc23)cc(OC)c1CN(C)C [Compound B4, 6-amino-4-[4-[(dimethylamino)methyl]-3,5-dimethoxyphenyl]-2-methyl-1,2-dihydro-2,7-naphthyridin-1-one] | ≤ 8.00
COc1cc(-c2cn(C)c(=O)c3cc(N)ncc23)cc(OC)c1CN(C)C [Compound B5, 7-amino-4-(4-((dimethylamino)methyl)-3,5-dimethoxyphenyl)-2-methyl-2,6-naphthyridin-1(2H)-one] | ≤ 8.00
COc1cc(-c2cn(C)c(=O)c3cc(NCC(=O)N(C)C)ncc23)cc(OC)c1CN(C)C [Compound B6, 2-[(8-[4-[(dimethylamino)methyl]-3,5-dimethoxyphenyl]-6-methyl-5-oxo-2,6-naphthyridin-3-yl)amino]-N,N-dimethylacetamide formic acid] | ≤ 8.00
COc1cc(-c2cn(C)c(=O)c3cnc(N(C)C)cc23)cc(OC)c1CN1CC(C(=O)NCCCCCOc2cccc3c2C(=O)N(C2CCC(=O)NC2=O)C3=O)C1 (stereo not drawn) [Compound D1, 1-([4-[6-(dimethylamino)-2-methyl-1-oxo-1,2-dihydro-2,7-naphthyridin-4-yl]-2,6-dimethoxyphenyl]methyl)-N-(5-[[2-(2,6-dioxopiperidin-3-yl)-1,3-dioxo-2,3-dihydro-1H-isoindol-4-yl]oxy]pentyl)azetidine-3-carboxamide] | > 8.00

These compounds were tested against T2, Nanoluciferase-BRD9 fusion protein (3×FLAG-NLuc-BRD9) in SYO-1 cells (Homo sapiens, UniProt Q9H8M2) (assay: SYO1 BRD9 NanoLuc Degradation Assay). Conditions: 6 hours; SYO-1 cells expressing 3×FLAG-NLuc-BRD9; top dose 1 μM; read-out: SYO1 BRD9-NanoLuc degradation IC50.
T2 construct: expressed in transfected cells; host or cells: SYO-1
T2 sequence (Q9H8M2 1-597): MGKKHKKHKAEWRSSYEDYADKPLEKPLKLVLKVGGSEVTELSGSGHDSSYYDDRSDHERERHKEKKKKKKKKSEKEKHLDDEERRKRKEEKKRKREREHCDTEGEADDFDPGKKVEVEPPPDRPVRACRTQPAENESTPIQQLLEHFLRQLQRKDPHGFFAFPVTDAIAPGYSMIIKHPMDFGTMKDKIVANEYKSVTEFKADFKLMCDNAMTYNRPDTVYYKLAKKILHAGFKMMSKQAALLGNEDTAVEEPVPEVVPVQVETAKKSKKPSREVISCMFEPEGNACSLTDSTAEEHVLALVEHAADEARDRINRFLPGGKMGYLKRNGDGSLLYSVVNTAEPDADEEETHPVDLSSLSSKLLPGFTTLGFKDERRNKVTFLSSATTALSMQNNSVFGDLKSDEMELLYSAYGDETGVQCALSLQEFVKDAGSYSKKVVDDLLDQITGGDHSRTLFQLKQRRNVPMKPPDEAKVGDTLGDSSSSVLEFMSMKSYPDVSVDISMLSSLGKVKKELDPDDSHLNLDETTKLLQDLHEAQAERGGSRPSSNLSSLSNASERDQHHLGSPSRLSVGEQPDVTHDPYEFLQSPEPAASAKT
Format: cell-based
How it was run: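 Stable 3×FLAG-NLuc-BRD9 SYO-1 line, 8000 cells/well, dosed day 1 with 10-point 3-fold dilutions (1 μM final top, duplicates) for 6 h. NanoLuc bioluminescence read with Nano-Glo; % inhibition relative to DMSO (high) and 1 μM reference BRD9 degrader (low) controls.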

SMILES | DC50
COc1cc(-c2cn(C)c(=O)c3cnc(N(C)C)cc23)cc(OC)c1CN1CC(C(=O)NCCCCCOc2cccc3c2C(=O)N(C2CCC(=O)NC2=O)C3=O)C1 (stereo not drawn) [Compound D1, 1-([4-[6-(dimethylamino)-2-methyl-1-oxo-1,2-dihydro-2,7-naphthyridin-4-yl]-2,6-dimethoxyphenyl]methyl)-N-(5-[[2-(2,6-dioxopiperidin-3-yl)-1,3-dioxo-2,3-dihydro-1H-isoindol-4-yl]oxy]pentyl)azetidine-3-carboxamide] | < 10 nM

Same assay, conditions: Table 6C; SYO-1 cells expressing 3×FLAG-NLuc-BRD9, 6 hours incubation, 1 μM top dose; read-out: SYO1 BRD9-NanoLuc degradation IC50

SMILES | DC50
COc1cc(-c2cn(C)c(=O)c3cnc(N4CC(F)(F)C4)cc23)cc(OC)c1CN1CCC(CN2CCC3(CC2)CN(c2ccc4c(c2)C(=O)N(C2CCC(=O)NC2=O)C4)C3)CC1 (stereo not drawn) [Compound D291] | < 10 nM
COc1cc2c(-c3cc(OC)c(CN4CCN(c5ccc6c(c5)C(=O)N(C5CCC(=O)NC5=O)C6)CC4C)c(OC)c3)cn(C)c(=O)c2cn1 (stereo not drawn) [Compound D293] | < 10 nM
COc1cc(-c2cn(C)c(=O)c3cnc(N4CCC4)cc23)cc(OC)c1C1CCN(c2ccc3c(c2)C(=O)N(C2CCC(=O)NC2=O)C3)CC1 (stereo not drawn) [Compound D294] | < 10 nM
COc1cc2c(-c3cc(OC)c(C4CCN(c5ccc6c(c5)C(=O)N(C5CCC(=O)NC5=O)C6)CC4)c(OC)c3)cn(C)c(=O)c2cn1 (stereo not drawn) [Compound D295] | < 10 nM
COc1cc(-c2cn(C)c(=O)c3cnc(N(C)C)cc23)cc(OC)c1CN1CCC(c2ccc3c(c2)C(=O)N(C2CCC(=O)NC2=O)C3)CC1 (stereo not drawn) [Compound D296] | < 10 nM
COc1cc(-c2cn(C)c(=O)c3cnc(N(C)C)cc23)cc(OC)c1CN1CCC(c2ccc3c(c2)CN(C2CCC(=O)NC2=O)C3=O)CC1 (stereo not drawn) [Compound D297] | < 10 nM

Second part, the compound after the results:

DC50 | SMILES
< 10 nM | COc1cc(-c2cn(C)c(=O)c3cnc(N(C)C)cc23)cc(OC)c1CCN1CCC(CN2CCC3(CC2)CC(Oc2ccc4c(c2)C(=O)N(C2CCC(=O)NC2=O)C4)C3)CC1 (stereo not drawn) [Compound D298]
< 10 nM | COc1cc(-c2cn(C)c(=O)c3cnc(C4CC4)cc23)cc(OC)c1CN1CCN(CCC2CCN(c3ccc4c(c3)C(=O)N(C3CCC(=O)NC3=O)C4=O)CC2)CC1 (stereo not drawn) [Compound D299]
< 10 nM | COc1cc(-c2cn(C)c(=O)c3cnc(C4CC4)cc23)cc(OC)c1CN1CC(Oc2ccc3c(c2)C(=O)N(C2CCC(=O)NC2=O)C3)C1 (stereo not drawn) [Compound D300]
< 10 nM | COc1cc(-c2cn(C)c(=O)c3cnc(C4CC4)cc23)cc(OC)c1CN1CCC(CN2CCC3(CC2)CC(Oc2ccc4c(c2)C(=O)N(C2CCC(=O)NC2=O)C4=O)C3)CC1 (stereo not drawn) [Compound D301]
< 10 nM | COc1cc(-c2cn(C)c(=O)c3cnc(C4CC4)cc23)cc(OC)c1CN1CCC(CN2CCC3(CC2)CC(Oc2ccc4c(c2)C(=O)N(C2CCC(=O)NC2=O)C4)C3)CC1 (stereo not drawn) [Compound D302]
< 10 nM | COc1cc(-c2cn(C)c(=O)c3cnc(C4CC4)cc23)cc(OC)c1CN1CC(CN2CCC3(CC2)CN(c2ccc4c(c2)C(=O)N(C2CCC(=O)NC2=O)C4=O)C3)C1 (stereo not drawn) [Compound D303]
< 10 nM | COc1cc(-c2cn(C)c(=O)c3cnc(C4CC4)cc23)cc(OC)c1CN1CCC(CCN2CCN(c3ccc4c(c3)C(=O)N(C3CCC(=O)NC3=O)C4=O)CC2)CC1 (stereo not drawn) [Compound D304]
< 10 nM | COc1cc(-c2cn(C)c(=O)c3cnc(C4CC4)cc23)cc(OC)c1CN1CCC(CCN2CCN(c3ccc4c(c3)C(=O)N(C3CCC(=O)NC3=O)C4)CC2)CC1 (stereo not drawn) [Compound D305]
< 10 nM | [2H]C([2H])([2H])n1cc(-c2cc(OC)c(CN3CC(CN4CCC5(CC4)CN(c4ccc6c(c4)C(=O)N(C4CCC(=O)NC4=O)C6=O)C5)C3)c(OC)c2)c2cc(C3CC3)ncc2c1=O (stereo not drawn) [Compound D306]
< 10 nM | [2H]C([2H])([2H])n1cc(-c2cc(OC)c(CN3CCC(CN4CCC5(CC4)CC(Oc4ccc6c(c4)C(=O)N(C4CCC(=O)NC4=O)C6=O)C5)CC3)c(OC)c2)c2cc(C3CC3)ncc2c1=O (stereo not drawn) [Compound D307]
< 10 nM | COc1cc(-c2cn(C)c(=O)c3cnc(C4COC4)cc23)cc(OC)c1CN1CCN(CCC2CCN(c3ccc4c(c3)C(=O)N(C3CCC(=O)NC3=O)C4=O)CC2)CC1 (stereo not drawn) [Compound D308]
< 10 nM | COc1cc(-c2cn(C)c(=O)c3cnc(C(F)(F)F)cc23)cc(OC)c1CN1CCN(CCC2CCN(c3ccc4c(c3)CN(C3CCC(=O)NC3=O)C4=O)CC2)CC1 (stereo not drawn) [Compound D309]
< 10 nM | COc1cc(-c2cn(C)c(=O)c3cnc(N4CCC4)cc23)cc(OC)c1CN1CCC2(CC1)CN(c1ccc3c(c1)CN(C1CCC(=O)NC1=O)C3=O)C2 (stereo not drawn) [Compound D310]
< 10 nM | COc1cc(-c2cn(C)c(=O)c3cnc(N4CCC4)cc23)cc(OC)c1CN1CC(CN2CCC3(CC2)CN(c2ccc4c(c2)C(=O)N(C2CCC(=O)NC2=O)C4)C3)C1 (stereo not drawn) [Compound D311]
< 10 nM | COc1cc(-c2cn(C)c(=O)c3cnc(N4CCC4)cc23)cc(OC)c1CN1CCC(c2ccc3c(c2)CN(C2CCC(=O)NC2=O)C3=O)CC1 (stereo not drawn) [Compound D312]
< 10 nM | COc1cc(-c2cn(C)c(=O)c3cnc(N4CCC4)cc23)cc(OC)c1CN1CCC(c2ccc3c(c2)C(=O)N(C2CCC(=O)NC2=O)C3)CC1 (stereo not drawn) [Compound D313]
< 10 nM | COc1cc(-c2cn(C)c(=O)c3cnc(N4CCOCC4)cc23)cc(OC)c1CN1CC(Oc2ccc3c(c2)CN(C2CCC(=O)NC2=O)C3=O)C1 (stereo not drawn) [Compound D314]
< 10 nM | COc1cc(-c2cn(C)c(=O)c3cnc(C(C)(C)CO)cc23)cc(OC)c1CN1CCC(CN2CCC3(CC2)CC(Oc2ccc4c(c2)CN(C2CCC(=O)NC2=O)C4=O)C3)CC1 (stereo not drawn) [Compound D315]
< 10 nM | COc1cc2c(-c3cc(OC)c(CN4CC(CN5CCC6(CC5)CN(c5ccc7c(c5)C(=O)N(C5CCC(=O)NC5=O)C7)C6)C4)c(OC)c3)cn(C)c(=O)c2cn1 (stereo not drawn) [Compound D316]
